Experimental data: article PMC9822358, “New Structures, Spectrometric Quantification, and Inhibitory Properties of Cardenolides from Asclepias curassavica Seeds” (Molecules, 2022)
pIC50: −log10 of the molar value.

Experiments:
[1] = target: porcine Na^+/K^+-ATPase (purified NKA from S. domesticus cerebral cortex); assay: Na+/K+ ATPase (NKA) inhibitory activity assay (inorganic phosphate released from ATP, absorbance at 700 nm); type: biochemical; conditions: unadapted NKA from Sus domesticus; read-out: IC50 against porcine NKA
Protocol: We tested the inhibitory capacity of the new compounds 1 and 2 and the known cardenolides 5–10 against porcine NKA. We used an in vitro assay to determine the IC50 of each compound and used ouabain as a reference.
We quantified the NKA inhibitory activity of the isolated cardenolides using purified NKA from S. domesticus cerebral cortex (Sigma-Aldrich-A7510-5UN, Steinheim, Germany), following protocols standardized by Petschenka et al.. Briefly, porcine NKA was diluted in di-water to a final assay concentration of 0.01 U/mL. The ATPase was exposed to exponentially decreasing concentrations from 10^−3 to 10^−8 M of ouabain (Sigma-Aldrich, O3125-1G, Steinheim, Germany) or the cardenolides 1–2 and 5–10. […] The NKA activity after cardenolide exposure was determined by quantification of inorganic phosphate released from enzymatically hydrolysed ATP. The […] levels were measured by photometric determination, reading the absorbance at 700 nm with a microplate reader (BMG Clariostar, BMG Labtech, Germany). The absorbance of each reaction was corrected with the respective background, and the inhibition curves were plotted in R studio [61] with log10-transformed cardenolide concentration versus percent of uninhibited control, with top and bottom asymptotes set to 1 and 0, respectively. […] IC50 values for each cardenolide and ouabain were also calculated from the inhibition curves using R studio. […]

porcine NKA = test system: porcine NKA; design: method as in PMID 33850021; conditions: cited from earlier work

SMILES	pIC50 [1]	log10 IC50 against porcine NKA (porcine NKA; log10 of IC50 in M)	pIC50 (porcine NKA; read-out: IC50 against porcine NKA)
C[C@H]1O[C@@H](O[C@H]2CC[C@@]3(C=O)[C@@H](CC[C@@H]4[C@@H]3CC[C@]3(C)[C@@H](C5=CC(=O)OC5)CC[C@]43O)C2)[C@H](O)[C@H](O)[C@@H]1O [Compound 9, gofruside]	7.02	–	–
CC1CC(O)C2(O)OC3CC4(C=O)C(CCC5C4CCC4(C)C(C6=CC(=O)OC6)C(O)CC54O)CC3OC2O1 (stereo not drawn) [Compound 10, 16α-hydroxycalotropin]	5.44	–	–
C[C@@H]1C[C@H](O)[C@]2(O)O[C@@H]3C[C@@]4(C=O)[C@@H](CC[C@@H]5[C@@H]4CC[C@]4(C)[C@@H](C6=CC(=O)OC6)CC[C@]54O)C[C@H]3O[C@@H]2O1 [calotropin]	–	−6.56	6.57
